Reference: US20250002507A1, “7,8-DIHYDRO-5H-1,6-NAPHTHYRIDINE DERIVATIVES AS POSITIVE ALLOSTERIC MODULATORS OF THE MUSCARINIC ACETYLCHOLINE RECEPTOR M4 FOR TREATING NEUROLOGICAL AND PSYCHIATRIC DISORDERS” (Vanderbilt University, priority 2021, published 2025)
Where two headings read alike, the source gives them in different places.

Biological target: T1, Human M4 (Homo sapiens, UniProt P08173)
T1 construct: expressed in transfected cells
T1 sequence (P08173 1-479): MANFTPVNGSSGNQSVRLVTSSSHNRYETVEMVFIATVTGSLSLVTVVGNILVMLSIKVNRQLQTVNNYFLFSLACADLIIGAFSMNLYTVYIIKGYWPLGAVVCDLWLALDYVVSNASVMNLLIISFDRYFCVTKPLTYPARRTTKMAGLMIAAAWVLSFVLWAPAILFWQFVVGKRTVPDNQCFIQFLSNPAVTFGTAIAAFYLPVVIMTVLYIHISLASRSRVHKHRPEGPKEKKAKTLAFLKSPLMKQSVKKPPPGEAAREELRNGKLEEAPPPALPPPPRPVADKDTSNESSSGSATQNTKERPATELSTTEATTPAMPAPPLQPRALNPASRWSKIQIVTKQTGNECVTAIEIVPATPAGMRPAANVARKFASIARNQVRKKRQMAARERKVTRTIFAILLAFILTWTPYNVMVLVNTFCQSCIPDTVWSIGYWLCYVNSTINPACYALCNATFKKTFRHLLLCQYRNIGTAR
Assay: mAChR M4 cell-based functional assay (calcium flux, potentiation of EC20 acetylcholine response), hM4-Gqi5 CHO-K1 cells
Settings: for Emax at 30 µM: CHO-K1, Human M4, % ACh maximum at 30 μM, read-out: Emax (% ACh maximum at 30 μM); for EC50: potentiation of EC20 acetylcholine response, calcium flux, CHO-K1 cells, read-out: Human M4 EC50
Summary of the method: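 Positive allosteric modulation was scored as a concentration-dependent rise in the response to an EC20 dose of acetylcholine, added 144 s after the compound. Human M4-Gqi5 CHO-K1 cells carried Fluo-4 dye, and compounds ran as 11-point, 3-fold dilution series. EC50 and Emax came from four-parameter logistic fits of the FDSS fluorescence-ratio traces.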

Emax at 30 µM (Table 3) [%] | EC50 (Table 3) [nM] | Emax at 30 µM (Table 4) [%] | EC50 (Table 4) [nM] | SMILES
– | – | 60 | 1800 | Cc1c(N2CCc3ncc(Cc4cccc(F)c4)cc3C2)nn2c(C(F)(F)F)nnc2c1C [Compound 312, 6-(7,8-dimethyl-3-(trifluoromethyl)-[1,2,4]triazolo[4,3-b]pyridazin-6-yl)-3-(3-fluorobenzyl)-5,6,7,8-tetrahydro-1,6-naphthyridine]
– | – | 82 | 296 | Cc1c(N2CCc3ncc(N4CCO[C@H](C)C4)cc3C2)nn2c(C(F)(F)F)nnc2c1C [Compound 313, (R)-4-(6-(7,8-dimethyl-3-(trifluoromethyl)-[1,2,4]triazolo[4,3-b]pyridazin-6-yl)-5,6,7,8-tetrahydro-1,6-naphthyridin-3-yl)-2-methylmorpholine]
– | – | 98 | 321 | Cc1c(N2CCc3ncc(N4CCOC[C@H]4C)cc3C2)nn2c(C(F)(F)F)nnc2c1C [Compound 314, (R)-4-(6-(7,8-dimethyl-3-(trifluoromethyl)-[1,2,4]triazolo[4,3-b]pyridazin-6-yl)-5,6,7,8-tetrahydro-1,6-naphthyridin-3-yl)-3-methylmorpholine]
– | – | 85 | 1900 | Cc1c(N2CCc3ncc(N4CCOC[C@@H]4C)cc3C2)nn2c(C(F)(F)F)nnc2c1C [Compound 315, (S)-4-(6-(7,8-dimethyl-3-(trifluoromethyl)-[1,2,4]triazolo[4,3-b]pyridazin-6-yl)-5,6,7,8-tetrahydro-1,6-naphthyridin-3-yl)-3-methylmorpholine]
– | – | 78 | 573 | Cc1c(N2CCc3ncc(N4CC5CC4CO5)cc3C2)nn2c(C(F)(F)F)nnc2c1C (centres unmarked) [Compound 316, 5-(6-(7,8-dimethyl-3-(trifluoromethyl)-[1,2,4]triazolo[4,3-b]pyridazin-6-yl)-5,6,7,8-tetrahydro-1,6-naphthyridin-3-yl)-2-oxa-5-azabicyclo[2.2.1]heptane]
– | – | 84 | 1400 | COC1CCN(c2cnc3c(c2)CN(c2nn4c(C(F)(F)F)nnc4c(C)c2C)CC3)CC1 [Compound 317, 6-(7,8-dimethyl-3-(trifluoromethyl)-[1,2,4]triazolo[4,3-b]pyridazin-6-yl)-3-(4-methoxypiperidin-1-yl)-5,6,7,8-tetrahydro-1,6-naphthyridine]
– | – | 80 | 2150 | Cc1c(N2CCc3ncc(N4C[C@@H](C)O[C@@H](C)C4)cc3C2)nn2c(C(F)(F)F)nnc2c1C [Compound 318, (2R,6S)-4-(6-(7,8-dimethyl-3-(trifluoromethyl)-[1,2,4]triazolo[4,3-b]pyridazin-6-yl)-5,6,7,8-tetrahydro-1,6-naphthyridin-3-yl)-2,6-dimethylmorpholine]
– | – | 96 | 794 | Cc1cc2nnc(C(F)(F)F)n2nc1N1CCc2ncc(C(F)(F)F)cc2C1 [Compound 319, 6-(7-methyl-3-(trifluoromethyl)-[1,2,4]triazolo[4,3-b]pyridazin-6-yl)-3-(trifluoromethyl)-5,6,7,8-tetrahydro-1,6-naphthyridine]
– | – | 76 | 121 | Cc1cc2n(n1)CCCN2c1cnc2c(c1)CN(c1nn3c(C(F)(F)F)nnc3c(C)c1C)CC2 [Compound 320, 6-(7,8-dimethyl-3-(trifluoromethyl)-[1,2,4]triazolo[4,3-b]pyridazin-6-yl)-3-(2-methyl-6,7-dihydropyrazolo[1,5-a]pyrimidin-4(5H)-yl)-5,6,7,8-tetrahydro-1,6-naphthyridine]
– | – | 72 | 270 | Cc1c(N2CCc3ncc(C(F)(F)F)cc3C2)nn2c(C(F)(F)F)nnc2c1C [Compound 321, 6-(7,8-dimethyl-3-(trifluoromethyl)-[1,2,4]triazolo[4,3-b]pyridazin-6-yl)-3-(trifluoromethyl)-5,6,7,8-tetrahydro-1,6-naphthyridine]
– | – | 96 | 3140 | Cc1c(N2CCc3ncc(N4CCO[C@H](c5ccccc5)C4)cc3C2)nn2c(C(F)(F)F)nnc2c1C [Compound 322, (R)-4-(6-(7,8-dimethyl-3-(trifluoromethyl)-[1,2,4]triazolo[4,3-b]pyridazin-6-yl)-5,6,7,8-tetrahydro-1,6-naphthyridin-3-yl)-2-phenylmorpholine]
– | – | 46 | 8910 | Cc1c(N2CCc3ncc(N4CCO[C@@H](c5ccccc5)C4)cc3C2)nn2c(C(F)(F)F)nnc2c1C [Compound 323, (S)-4-(6-(7,8-dimethyl-3-(trifluoromethyl)-[1,2,4]triazolo[4,3-b]pyridazin-6-yl)-5,6,7,8-tetrahydro-1,6-naphthyridin-3-yl)-2-phenylmorpholine]

More lines, now with the values behind:

SMILES | Emax at 30 µM (Table 3) [%] | EC50 (Table 3) [nM] | Emax at 30 µM (Table 4) [%] | EC50 (Table 4) [nM]
Cc1c(N2CCc3ncc(Oc4ccc(F)cc4F)cc3C2)nn2c(C(F)(F)F)nnc2c1C [Compound 299, 3-(2,4-difluorophenoxy)-6-(7,8-dimethyl-3-(trifluoromethyl)-[1,2,4]triazolo[4,3-b]pyridazin-6-yl)-5,6,7,8-tetrahydro-1,6-naphthyridine] | 111 | 216 | – | –
Cc1c(N2CCc3ncc(Oc4cccc(F)c4F)cc3C2)nn2c(C(F)(F)F)nnc2c1C [Compound 300, 3-(2,3-difluorophenoxy)-6-(7,8-dimethyl-3-(trifluoromethyl)-[1,2,4]triazolo[4,3-b]pyridazin-6-yl)-5,6,7,8-tetrahydro-1,6-naphthyridine] | 87 | 969 | – | –
Cc1c(N2CCc3ncc(Oc4cc(F)ccc4F)cc3C2)nn2c(C(F)(F)F)nnc2c1C [Compound 301, 3-(2,5-difluorophenoxy)-6-(7,8-dimethyl-3-(trifluoromethyl)-[1,2,4]triazolo[4,3-b]pyridazin-6-yl)-5,6,7,8-tetrahydro-1,6-naphthyridine] | 85 | 820 | – | –
Cc1c(N2CCc3ncc(Oc4ccc(F)cc4F)cc3C2)nn2cnnc2c1C [Compound 302, 3-(2,4-difluorophenoxy)-6-(7,8-dimethyl-[1,2,4]triazolo[4,3-b]pyridazin-6-yl)-5,6,7,8-tetrahydro-1,6-naphthyridine] | 93 | 177 | – | –
Cc1c(N2CCc3ncc(Oc4cc(F)ccc4F)cc3C2)nn2cnnc2c1C [Compound 303, 3-(2,5-difluorophenoxy)-6-(7,8-dimethyl-[1,2,4]triazolo[4,3-b]pyridazin-6-yl)-5,6,7,8-tetrahydro-1,6-naphthyridine] | 96 | 86 | – | –
Cc1c(N2CCc3ncc(Oc4cccc(F)c4F)cc3C2)nn2cnnc2c1C [Compound 304, 3-(2,3-difluorophenoxy)-6-(7,8-dimethyl-[1,2,4]triazolo[4,3-b]pyridazin-6-yl)-5,6,7,8-tetrahydro-1,6-naphthyridine] | – | – | 93 | 348
Cc1c(N2CCc3ncc(OCC(F)(F)F)cc3C2)nn2cnnc2c1C [Compound 305, 6-(7,8-dimethyl-[1,2,4]triazolo[4,3-b]pyridazin-6-yl)-3-(2,2,2-trifluoroethoxy)-5,6,7,8-tetrahydro-1,6-naphthyridine] | – | – | 112 | 1870
Cc1c(N2CCc3ncc(N4CC(C)Cn5nccc54)cc3C2)nn2c(C(F)(F)F)nnc2c1C (centres unmarked) [Compound 306, 6-(7,8-dimethyl-3-(trifluoromethyl)-[1,2,4]triazolo[4,3-b]pyridazin-6-yl)-3-(6-methyl-6,7-dihydropyrazolo[1,5-a]pyrimidin-4(5H)-yl)-5,6,7,8-tetrahydro-1,6-naphthyridine] | – | – | 102 | 143
Cc1c(N2Cc3cc(C(F)(F)F)cnc3CC2C)nn2cnnc2c1C (centres unmarked) [Compound 307, 6-(7,8-Dimethyl-[1,2,4]triazolo[4,3-b]pyridazin-6-yl)-7-methyl-3-(trifluoromethyl)-5,6,7,8-tetrahydro-1,6-naphthyridine] | – | – | 96 | 299
Cc1c(N2CCc3ncc(Cc4ccccc4F)cc3C2)nn2cnnc2c1C [Compound 308, 6-(7,8-dimethyl-[1,2,4]triazolo[4,3-b]pyridazin-6-yl)-3-(2-fluorobenzyl)-5,6,7,8-tetrahydro-1,6-naphthyridine] | – | – | 91 | 110
Cc1c(N2CCc3ncc(Cc4ccccc4F)cc3C2)nn2c(C(F)(F)F)nnc2c1C [Compound 309, 6-(7,8-dimethyl-3-(trifluoromethyl)-[1,2,4]triazolo[4,3-b]pyridazin-6-yl)-3-(2-fluorobenzyl)-5,6,7,8-tetrahydro-1,6-naphthyridine] | – | – | 83 | 1410
Cc1ccc(Oc2cnc3c(c2)CN(c2nn4cnnc4cc2C)CC3)c(F)c1 [Compound 310, 3-(2-fluoro-4-methylphenoxy)-6-(7-methyl-[1,2,4]triazolo[4,3-b]pyridazin-6-yl)-5,6,7,8-tetrahydro-1,6-naphthyridine] | – | – | 81 | 182
Cc1c(N2CCc3ncc(Cc4cccc(F)c4)cc3C2)nn2cnnc2c1C [Compound 311, 6-(7,8-dimethyl-[1,2,4]triazolo[4,3-b]pyridazin-6-yl)-3-(3-fluorobenzyl)-5,6,7,8-tetrahydro-1,6-naphthyridine] | – | – | 81 | 246
